Where two headings read alike, the source gives them in different places.
Key:
A2780 ovarian cancer = test: MTT proliferation inhibition, A2780; format: cell-based; settings: Homo sapiens, A2780, read-out: Proliferation inhibition rate, A2780 Ovarian cancer
Source text: (§1) 1. Cytotoxicity Assay Using Human Tumor Cell Lines
(§2) Paclitaxel was used as the positive drug.

Hela cervical cancer = test: MTT proliferation inhibition, HeLa; format: cell-based; settings: Homo sapiens, read-out: Proliferation inhibition rate, HeLa Uterin cancer
Source text: as §1, §2

[1] = tested on: MCF-7 breast cancer cells; test: MTT proliferation inhibition, MCF-7; format: cell-based; settings: Homo sapiens, MCF7, read-out: Proliferation inhibition rate, MCF-7 Breast cancer
Source text: as §1, §2

[2] = tested on: NCI-H460 non-small cell lung cancer; test: MTT proliferation inhibition, NCI-H460; format: cell-based; settings: Homo sapiens, NCI-H460, read-out: Proliferation inhibition rate, NCI-H460 Non-small cell lung cancer
Source text: as §1, §2

A375 melanoma = test: MTT proliferation inhibition, A375; format: cell-based; settings: Homo sapiens, A-375, read-out: Proliferation inhibition rate, A375 Melanoma
Source text: as §1, §2

HT-29 colon cancer = test: MTT proliferation inhibition, HT-29; format: cell-based; settings: Homo sapiens, HT-29, read-out: Proliferation inhibition rate, HT29 Colon cancer
Source text: as §1, §2

HL-60 leukemia = test: MTT proliferation inhibition, HL-60; format: cell-based; settings: Homo sapiens, HL-60, read-out: Proliferation inhibition rate, HL60 Leukemia
Source text: as §1, §2

Du145 prostate cancer = test: MTT proliferation inhibition, Du145; format: cell-based; settings: Homo sapiens, DU-145, read-out: Proliferation inhibition rate, DU145 Prostate cancer
Source text: as §1, §2

[3] = tested on: MDA-MB-436 breast cancer cells; test: MTT proliferation inhibition, MDA-MB-436; format: cell-based; settings: Homo sapiens, MDA-MB-436, read-out: Proliferation inhibition rate, MDA-MB-436 Breast cancer
Source text: as §1, §2

LN-18 = test: MTT proliferation inhibition, LN-18; format: cell-based; settings: Homo sapiens, LN-18, read-out: Proliferation inhibition rate, LN-18 Gastric canser
Source text: as §1, §2

BGC-823 gastric cancer = test: MTT proliferation inhibition, BGC-823; format: cell-based; settings: Homo sapiens, BGC-823, read-out: Proliferation inhibition rate, BGC-823 Gastric cancer
Source text: as §1, §2

[4] = tested on: A549 non-small cell lung cancer; test: MTT proliferation inhibition, A549; format: cell-based; settings: Homo sapiens, A549, read-out: Proliferation inhibition rate, A549 Non-small cell lung cancer
Source text: as §1, §2

B16 melanoma = test: MTT proliferation inhibition, B16; format: cell-based; settings: B16, read-out: Proliferation inhibition rate, B16 Melanoma
Source text: as §1, §2

HCT 116 colon cancer = test: MTT proliferation inhibition, HCT 116; format: cell-based; settings: Homo sapiens, HCT-116, read-out: Proliferation inhibition rate, HCT 116 Colon cancer
Source text: as §1, §2

K562 leukemia = test: MTT proliferation inhibition, K562; format: cell-based; settings: Homo sapiens, K562, read-out: Proliferation inhibition rate, K562 Leukemia
Source text: as §1, §2

LNCaP prostate cancer = test: MTT proliferation inhibition, LNCaP; format: cell-based; settings: Homo sapiens, read-out: Proliferation inhibition rate, LNCaP Prostate cancer
Source text: as §1, §2

[5] = tested on: breast cancer cell line MCF-7; test: IC50 on breast cancer cell line MCF-7; format: cell-based; settings: Homo sapiens, MCF7, 72 h, read-out: MCF-7 (IC50, nM)
Experimental: From the activity evaluation data of the above-mentioned preliminary screen, it can be seen that the series of taxanes derivatives synthesized in the present invention have activity. Afterward, the compounds are investigated to examine their IC50 values on breast cancer cell line MCF-7. […] Experiments for each compound were independently repeated for three times and multiple holes were used in each experiment. The exposure time of drugs was 72 hours.

[6] = Caco-2 cell monolayer membrane transport assay (Papp and recovery); format: in vitro ADME; settings: human; for Papp B→A: Caco-2, Papp B-A
Source text: Caco-2 Cell Monolayer Membrane Transport Assay
Human-derived colorectal adenocarcinoma cell line Caco-2 cell monolayer model was used to study the bidirectional transport of the target compounds from the apical (AP) side to the basolateral (BL) side and from BL side to AP side. HPLC was used for quantitative analysis to calculate transport parameters, apparent permeability coefficient (Papp) and the efflux ratio.

[7] = Caco-2, Caco-2, A-B, Mean, read-out: Papp A-B, Mean
[8] = Caco-2, Caco-2, A-B, Mean, read-out: Recovery rate in mass, Mean
[9] = Caco-2, Caco-2, A-B, Sample-01, read-out: Papp A-B, Sample-01
[10] = Caco-2, Caco-2, A-B, Sample-01, read-out: Recovery rate in mass, Sample-01
[11] = Caco-2, Caco-2, A-B, Sample-02, read-out: Papp A-B, Sample-02
[12] = Caco-2, Caco-2, A-B, Sample-02, read-out: Recovery rate in mass, Sample-02
[13] = Caco-2, Recovery rate in mass, Mean
[14] = Caco-2, Recovery rate in mass, Sample-01
[15] = Caco-2, Recovery rate in mass, Sample-02

SMILES | inhibition at 1 µM (A2780 ovarian cancer) [%] | inhibition at 1 µM (Hela cervical cancer) [%] | inhibition at 1 µM [1] [%] | inhibition at 1 µM [2] [%] | inhibition at 1 µM (A375 melanoma) [%] | inhibition at 1 µM (HT-29 colon cancer) [%] | inhibition at 1 µM (HL-60 leukemia) [%] | inhibition at 1 µM (Du145 prostate cancer) [%] | inhibition at 1 µM [3] [%] | inhibition at 1 µM (LN-18) [%] | inhibition at 1 µM (BGC-823 gastric cancer) [%] | inhibition at 1 µM [4] [%] | inhibition at 1 µM (B16 melanoma) [%] | inhibition at 1 µM (HCT 116 colon cancer) [%] | inhibition at 1 µM (K562 leukemia) [%] | inhibition at 1 µM (LNCaP prostate cancer) [%] | IC50 [5] [nM] | recovery [6, 8] [%] | Papp A→B [6, 9] [×10⁻⁶ cm/s] | recovery [6, 10] [%] | other results
CO[C@H]1C(=O)[C@]2(C)[C@@H](OC(=O)N(C)C)C[C@H]3OC[C@@]3(OC(C)=O)[C@H]2[C@H](OC(=O)c2ccccc2)[C@]23OC(=O)O[C@H]2[C@H](OC(=O)[C@H](O)[C@H](CC(C)C)NC(=O)OC(C)(C)C)C(C)=C1C3(C)C [PCMI-16] | 96.1 | 102 | 97.2 | 87.2 | 96.3 | 89.2 | 97.8 | 91.4 | 81.2 | 95.2 | 95.3 | 74.7 | 83.1 | 67.1 | 95 | 86.8 | 21.17 ± 0.21 | 33.1 | 1.41 | 32.7 | Papp A→B [6, 7]: 1.64 ×10⁻⁶ cm/s; Papp A→B [6, 11]: 1.87 ×10⁻⁶ cm/s; recovery [6, 12]: 33.5%
CO[C@H]1C(=O)[C@@]2(C)[C@H]([C@H](OC(=O)c3ccccc3)[C@]34OC(=O)O[C@H]3[C@H](OC(=O)[C@H](O)[C@@H](NC(=O)OC(C)(C)C)c3ccccc3)C(C)=C1C4(C)C)[C@]1(OC(C)=O)CO[C@@H]1C[C@@H]2O [PCMI-06] | 96 | 99.9 | 86.3 | 84.7 | 94.4 | 87.3 | 97.7 | 89.1 | 77.8 | 94.6 | 93.6 | 75.5 | 80.7 | 67.1 | 93.3 | 83.6 | 16.24 ± 0.08 | 112 | 1.31 | 128 | Papp A→B [6, 7]: 1.22 ×10⁻⁶ cm/s; Papp A→B [6, 11]: 1.13 ×10⁻⁶ cm/s; recovery [6, 12]: 96.6%
CCSC(=O)O[C@H]1C(=O)[C@]2(C)[C@@H](OC)C[C@H]3OC[C@@]3(OC(C)=O)[C@H]2[C@H](OC(=O)c2ccccc2)[C@]23OC(=O)O[C@H]2[C@H](OC(=O)[C@H](O)[C@@H](NC(=O)OC(C)(C)C)c2ccccc2)C(C)=C1C3(C)C [PCMI-13] | 95.9 | 100 | 84.7 | 86.2 | 93.1 | 87.4 | 97.5 | 90.7 | 81 | 93.8 | 94 | 77.1 | 81.2 | 68.5 | 94.2 | 86.3 | 3.89 ± 0.12 | 40.8 to 43.1 | < 1.3 | 40.8 to 42 | Papp A→B [6, 7]: < 1.67 ×10⁻⁶ cm/s; Papp A→B [6, 11]: < 1.67 ×10⁻⁶ cm/s; recovery [6, 12]: 41.5 to 43.1%
CCSC(=O)O[C@H]1C[C@H]2OC[C@@]2(OC(C)=O)[C@H]2[C@H](OC(=O)c3ccccc3)[C@]34OC(=O)O[C@H]3[C@H](OC(=O)[C@H](O)[C@@H](NC(=O)OC(C)(C)C)c3ccccc3)C(C)=C([C@@H](OC)C(=O)[C@]12C)C4(C)C [PCMI-21] | 96.4 | 99.5 | 88.7 | 85.5 | 96.7 | 87.7 | 96.5 | 90.6 | 83.1 | 94.7 | 93.3 | 74.9 | 75.8 | 70.1 | 95 | 87.4 | 3.46 ± 0.16 | 72 | 2.32 | 76.6 | Papp A→B [6, 7]: 2.45 ×10⁻⁶ cm/s; Papp A→B [6, 11]: 2.58 ×10⁻⁶ cm/s; recovery [6, 12]: 67.5%
CO[C@H]1C(=O)[C@]2(C)[C@@H](OC(=O)N(C)C)C[C@H]3OC[C@@]3(OC(C)=O)[C@H]2[C@H](OC(=O)c2ccccc2)[C@]23OC(=O)O[C@H]2[C@H](OC(=O)[C@H](O)[C@@H](NC(=O)OC(C)(C)C)c2ccccn2)C(C)=C1C3(C)C [PCMI-15] | 95.7 | 101 | 95.5 | 86 | 97.9 | 88.7 | 97.8 | 90.8 | 82 | 95.7 | 95 | 74.6 | 80.8 | 68.3 | 93.2 | 86.7 | 18.2 ± 0.24 | 79.3 | 2.14 | 83.7 | Papp A→B [6, 11]: 2.78 ×10⁻⁶ cm/s; recovery [6, 12]: 74.8%
CC[C@H]1OC(=O)[C@H](C)[C@@H](O[C@H]2C[C@@](C)(OC)[C@@H](O)[C@H](C)O2)[C@H](C)[C@@H](O[C@@H]2O[C@H](C)C[C@H](N(C)C)[C@H]2O)[C@](C)(O)C[C@@H](C)C(=O)[C@H](C)[C@@H](O)[C@]1(C)O [Erythromycin, reference compound] | – | – | – | – | – | – | – | – | – | – | – | – | – | – | – | – | – | – | – | – | recovery [6, 13]: 99%; recovery [6, 14]: 99.6%; recovery [6, 15]: 98.5%
COCCc1ccc(OCC(O)CNC(C)C)cc1 (stereo not drawn) [Metoprolol, reference compound] | – | – | – | – | – | – | – | – | – | – | – | – | – | – | – | – | – | – | – | – | Papp A→B ([6]; Caco-2, Papp A-B, Mean): 27.2 ×10⁻⁶ cm/s; Papp A→B ([6]; Caco-2, Papp A-B, Sample-01): 28.1 ×10⁻⁶ cm/s; Papp A→B ([6]; Caco-2, Papp A-B, Sample-02): 26.2 ×10⁻⁶ cm/s; Papp B→A ([6]; Mean): 22.7 ×10⁻⁶ cm/s; Papp B→A ([6]; Sample-01): 22.4 ×10⁻⁶ cm/s; Papp B→A ([6]; Sample-02): 23 ×10⁻⁶ cm/s; recovery [6, 13]: 99%; recovery [6, 14]: 103%; recovery [6, 15]: 95.5%
